ChEMBL document CHEMBL1125863, “New aromatase inhibitors. Synthesis and biological activity of pyridyl-substituted tetralone derivatives” (J Med Chem, 1991)

Tests used:
[1] = target: T1, Aromatase (Rattus norvegicus, UniProt P22443)
T1 sequence (P22443 whole entry): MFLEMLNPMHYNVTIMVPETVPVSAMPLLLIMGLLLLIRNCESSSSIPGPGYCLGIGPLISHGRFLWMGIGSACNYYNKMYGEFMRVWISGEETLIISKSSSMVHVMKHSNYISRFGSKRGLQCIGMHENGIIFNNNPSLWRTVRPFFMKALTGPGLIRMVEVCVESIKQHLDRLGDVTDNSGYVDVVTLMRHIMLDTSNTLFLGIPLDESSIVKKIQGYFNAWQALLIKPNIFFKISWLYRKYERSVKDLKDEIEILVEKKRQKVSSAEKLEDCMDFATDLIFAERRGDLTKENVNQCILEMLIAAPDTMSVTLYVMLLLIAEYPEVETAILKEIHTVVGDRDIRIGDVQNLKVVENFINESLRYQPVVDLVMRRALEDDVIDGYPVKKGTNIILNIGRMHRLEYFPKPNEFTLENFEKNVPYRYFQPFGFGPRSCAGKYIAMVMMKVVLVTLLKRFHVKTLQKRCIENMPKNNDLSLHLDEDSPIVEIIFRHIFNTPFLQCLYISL

[2] = species on record: Rattus norvegicus; conditions: Ovarian vein
[3] = species on record: Rattus norvegicus; conditions: Heart right ventricle
[4] = species on record: Rattus norvegicus; conditions: Heart right ventricle; remark: listed apart in the source
[5] = species on record: Rattus norvegicus; assay type: functional; conditions: dose 20 mg/kg
[6] = species on record: Rattus norvegicus; assay type: functional; conditions: dose 20 mg/kg; remark: listed apart in the source
[7] = species on record: Rattus norvegicus; assay type: functional; conditions: dose 20 mg/kg; remark: listed apart in the source
[8] = species on record: Rattus norvegicus; assay type: functional; conditions: dose 20 mg/kg; remark: listed apart in the source
[9] = species on record: Rattus norvegicus; assay type: functional; conditions: dose 20 mg/kg; remark: listed apart in the source
[10] = species on record: Rattus norvegicus; assay type: functional; conditions: dose 20 mg/kg; remark: listed apart in the source
[11] = species on record: Rattus norvegicus; assay type: functional; conditions: dose 20 mg/kg; remark: listed apart in the source
[12] = species on record: Rattus norvegicus; assay type: functional; conditions: dose 10.9 mg/kg
[13] = species on record: Rattus norvegicus; assay type: functional; conditions: dose 10.9 mg/kg; remark: listed apart in the source
[14] = species on record: Rattus norvegicus; assay type: functional; conditions: dose 10.9 mg/kg; remark: listed apart in the source
[15] = species on record: Rattus norvegicus; assay type: functional; conditions: dose 10.9 mg/kg; remark: listed apart in the source
[16] = species on record: Rattus norvegicus; assay type: functional; conditions: dose 10.9 mg/kg; remark: listed apart in the source
[17] = species on record: Rattus norvegicus; assay type: functional; conditions: dose 10.9 mg/kg; remark: listed apart in the source
[18] = species on record: Rattus norvegicus; assay type: functional; conditions: dose 10.9 mg/kg; remark: listed apart in the source
[19] = species on record: Rattus norvegicus; assay type: functional; conditions: dose 11.5 mg/kg
[20] = species on record: Rattus norvegicus; assay type: functional; conditions: dose 11.5 mg/kg; remark: listed apart in the source
[21] = species on record: Rattus norvegicus; assay type: functional; conditions: dose 11.5 mg/kg; remark: listed apart in the source
[22] = species on record: Rattus norvegicus; assay type: functional; conditions: dose 11.5 mg/kg; remark: listed apart in the source
[23] = species on record: Rattus norvegicus; assay type: functional; conditions: dose 11.5 mg/kg; remark: listed apart in the source
[24] = species on record: Rattus norvegicus; assay type: functional; conditions: dose 11.5 mg/kg; remark: listed apart in the source
[25] = species on record: Rattus norvegicus; assay type: functional; conditions: dose 11.5 mg/kg; remark: listed apart in the source

O=C1c2cccc(O)c2CCC1Cc1ccncc1 (stereo in doubt; 12) showed an IC50 [1] of 2000 nM, a Plasma-E2 concentration [2] of 3700 pg/mL and a Plasma-E2 concentration [3] of 472 pg/mL.
O=C1c2ccccc2CCC1Cc1ccncc1 (stereo not drawn) was tested, and the Plasma-E2 concentration [2] was 3700 pg/mL and the Plasma-E2 concentration [4] was 717 pg/mL.
In the case of CCC(=O)O[C@H]1CC[C@H]2[C@@H]3CCC4=CC(=O)CC[C@]4(C)[C@H]3CC[C@]12C [TESTOSTERONE PROPIONATE], the “Tumors with CR” value [5] is reported as 19%, the “Tumors with CR” value [6] is reported as 25% and the “Tumors with CR” value [7] is reported as 36%. The No. of tumors [8] was 12, the “Tumors with CR” value [9] was 19% and the No. of tumors [10] was 36. The “Change of tumor area” value [11] was 141%.
With CCC(=O)O[C@H]1CC[C@H]2[C@@H]3CCC4=CC(=O)CC[C@]4(C)[C@H]3CC[C@]12C.O=C1c2cccc(O)c2CCC1Cc1ccncc1 the “Tumors with CR” value [12] was 27%, the “Tumors with CR” value [13] was 6% and the “Tumors with CR” value [14] was 45%. For the same compound, the No. of tumors [15] was 3, the “Tumors with CR” value [16] was 21% and the No. of tumors [17] was 33. For the same compound, the “Change of tumor area” value [18] was 61%.
CCC(=O)O[C@H]1CC[C@H]2[C@@H]3CCC4=CC(=O)CC[C@]4(C)[C@H]3CC[C@]12C.COc1cccc2c1CCC(Cc1ccncc1)C2=O was tested, and the “Tumors with CR” value [19] was 24%, the “Tumors with CR” value [20] was 29% and the “Tumors with CR” value [21] was 35%. The No. of tumors [22] was 11, the “Tumors with CR” value [23] was 12% and the No. of tumors [24] was 34. The “Change of tumor area” value [25] was 50%.
With O=C1/C(=C/c2ccncc2)CCc2c(O)cccc21 the Plasma-E2 concentration [2] was 4040 pg/mL and the Plasma-E2 concentration [3] was 524 pg/mL.
